# Test results taken from ChEMBL document CHEMBL1139387, “Fragment-based discovery of the pyrazol-4-yl urea (AT9283), a multitargeted kinase inhibitor with potent aurora kinase activity” (J Med Chem, 2009).
# Tests used:
# Aurora kinase B = Aurora kinase B (Homo sapiens, UniProt Q96GD4); test: Inhibition of Aurora B
# [1] = target: Cyclin-dependent kinase 1/cyclin B1 (Homo sapiens, UniProt P06493); test: Inhibition of CDK1/Cyclin B; format: protein-complex assay
# HCT-116 [2] = test: Cytotoxicity against human HCT116 cells assessed as distinct polyploidy phenotype after 72 hrs; format: functional
# [3] = target: Cyclin-dependent kinase 2 (Homo sapiens, UniProt P24941); test: Inhibition of CDK2/Cyclin A
# Aurora kinase A = target: T1, Aurora kinase A (Homo sapiens, UniProt O14965)
# T1 sequence (O14965 whole entry): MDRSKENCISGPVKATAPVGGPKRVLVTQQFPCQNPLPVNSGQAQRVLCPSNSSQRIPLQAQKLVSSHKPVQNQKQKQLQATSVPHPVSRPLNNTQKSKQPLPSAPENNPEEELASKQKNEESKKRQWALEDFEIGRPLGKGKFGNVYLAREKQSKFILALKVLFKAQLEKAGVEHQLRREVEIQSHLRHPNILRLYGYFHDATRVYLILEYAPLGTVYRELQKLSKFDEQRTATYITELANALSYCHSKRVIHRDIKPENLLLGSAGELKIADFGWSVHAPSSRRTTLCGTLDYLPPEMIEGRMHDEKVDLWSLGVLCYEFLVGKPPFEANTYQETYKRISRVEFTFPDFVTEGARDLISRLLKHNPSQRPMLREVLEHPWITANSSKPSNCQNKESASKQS
# in vitro = conditions: mouse, plasma
# HCT-116 [4] = test: Cytotoxicity against human HCT116 cells assessed as number of colonies after 10 to 14 days by colony forming assay; format: functional, cell-based
# [5] = Lipophilicity, log D at pH 7.4; format: physicochemical; conditions: buffer
# [6] = target: Cyclin-dependent kinase 1/cyclin B1 (Homo sapiens) (UniProt P06493+P14635); conditions: 1000 uM
# [7] = Cmax in BALB/c mouse bearing human HCT116 cells at 10 mg/kg, po; format: ADME, organism-based, HCT-116; design: dose 10 mg/kg, route oral; conditions: in vivo
# [8] = Cmax in BALB/c mouse bearing human HCT116 cells at 5 mg/kg, iv; format: ADME, organism-based, HCT-116; design: dose 5 mg/kg, route intravenous; conditions: in vivo
# [9] = AUC (0 to t) in BALB/c mouse bearing human HCT116 cells at 20 mg/kg, ip; format: ADME, organism-based, HCT-116; design: dose 20 mg/kg, route intraperitoneal; conditions: in vivo
# [10] = target: Vascular endothelial growth factor receptor 3 (Homo sapiens, UniProt P35916); test: Inhibition of VEGFR3
# [11] = Half life in human HCT116 cells xenografted BALB/c mouse tumor at 10 mg/kg, iv; format: ADME, organism-based, HCT-116; design: dose 10 mg/kg, route intravenous
# [12] = target: Tyrosine-protein kinase Yes (Homo sapiens, UniProt P07947); test: Inhibition of Yes
# [13] = Solubility at pH 7.0; format: physicochemical; conditions: buffer
# Cytochrome P450 2C9 = Cytochrome P450 2C9 (Homo sapiens, UniProt P11712); test: Inhibition of CYP2C9; format: ADME
# [14] = Bioavailability in BALB/c mouse bearing human HCT116 cells at 20 mg/kg, ip; format: ADME, organism-based, HCT-116; conditions: in vivo
# [15] = AUC (0 to t) in BALB/c mouse bearing human HCT116 cells at 5 mg/kg, iv; format: ADME, organism-based, HCT-116; design: dose 5 mg/kg, route intravenous; conditions: in vivo
# [16] = Oral bioavailability in BALB/c mouse bearing human HCT116 cells at 10 mg/kg; format: ADME, organism-based, HCT-116; conditions: in vivo
# [17] = Half life in BALB/c mouse plasma bearing human HCT116 cells at 5 mg/kg, iv; format: ADME, organism-based, HCT-116; design: dose 5 mg/kg, route intravenous
# [18] = target: T2, Serine/threonine-protein kinase 17A (Homo sapiens, UniProt Q9UEE5); test: Inhibition of DRAK1
# T2 sequence (Q9UEE5 whole entry): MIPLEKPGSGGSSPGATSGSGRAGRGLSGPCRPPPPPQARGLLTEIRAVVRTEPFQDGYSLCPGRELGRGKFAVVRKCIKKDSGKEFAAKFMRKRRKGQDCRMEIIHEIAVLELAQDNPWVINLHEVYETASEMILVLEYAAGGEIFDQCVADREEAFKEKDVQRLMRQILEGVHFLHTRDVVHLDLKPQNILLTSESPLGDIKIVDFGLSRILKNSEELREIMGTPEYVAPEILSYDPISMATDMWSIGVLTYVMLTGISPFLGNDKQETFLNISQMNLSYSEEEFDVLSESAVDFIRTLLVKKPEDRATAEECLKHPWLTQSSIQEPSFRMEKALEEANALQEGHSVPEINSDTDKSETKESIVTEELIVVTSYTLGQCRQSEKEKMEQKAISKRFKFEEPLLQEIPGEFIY
# Cytochrome P450 1A2 = target: T3, Cytochrome P450 1A2 (Homo sapiens, UniProt P05177); test: Inhibition of CYP1A2; format: ADME
# T3 sequence (P05177 whole entry): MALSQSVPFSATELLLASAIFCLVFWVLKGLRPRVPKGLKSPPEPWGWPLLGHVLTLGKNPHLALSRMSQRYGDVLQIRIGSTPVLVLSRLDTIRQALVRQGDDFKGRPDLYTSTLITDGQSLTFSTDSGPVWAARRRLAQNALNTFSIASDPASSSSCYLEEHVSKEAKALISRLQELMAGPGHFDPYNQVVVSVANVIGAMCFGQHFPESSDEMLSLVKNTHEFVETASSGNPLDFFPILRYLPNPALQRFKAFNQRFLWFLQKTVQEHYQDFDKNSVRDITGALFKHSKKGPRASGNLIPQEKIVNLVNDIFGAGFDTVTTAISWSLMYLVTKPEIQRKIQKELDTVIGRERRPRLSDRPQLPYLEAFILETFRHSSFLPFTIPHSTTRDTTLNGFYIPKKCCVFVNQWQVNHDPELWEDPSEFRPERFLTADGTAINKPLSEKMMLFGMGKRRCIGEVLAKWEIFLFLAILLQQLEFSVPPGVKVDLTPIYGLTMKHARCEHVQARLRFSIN
# Cytochrome P450 2C19 = Cytochrome P450 2C19 (Homo sapiens, UniProt P33261); test: Inhibition of CYP2C19; format: ADME
# Cytochrome P450 2D6 = Cytochrome P450 2D6 (Homo sapiens, UniProt P10635); test: Inhibition of CYP2D6; format: ADME
# [19] = target: Glycogen synthase kinase-3 beta (Homo sapiens, UniProt P49841); test: Inhibition of GSK3-beta
# [20] = Volume of distribution at steady state in BALB/c mouse bearing human HCT116 cells at 5 mg/kg, iv; format: ADME, organism-based, HCT-116; design: dose 5 mg/kg, route intravenous; conditions: in vivo, read-out: Vdss
# [21] = Cmax in BALB/c mouse bearing human HCT116 cells at 20 mg/kg, ip; format: ADME, organism-based, HCT-116; design: dose 20 mg/kg, route intraperitoneal; conditions: in vivo
# [22] = AUC (0 to t) in BALB/c mouse bearing human HCT116 cells at 10 mg/kg, po; format: ADME, organism-based, HCT-116; design: dose 10 mg/kg, route oral; conditions: in vivo
# [23] = Solubility at pH 5.5; format: physicochemical; conditions: buffer
# [24] = Clearance in BALB/c mouse bearing human HCT116 cells at 5 mg/kg, iv; format: ADME, organism-based, HCT-116; design: dose 5 mg/kg, route intravenous; conditions: in vivo, read-out: MLC
# [25] = Plasma concentration in mouse assessed per kg body weight; format: ADME, organism-based
# [26] = Oral bioavailability in mouse; format: ADME, organism-based; conditions: in vivo
# HCT-116 [27] = test: Antitumor activity against human HCT116 cells xenografted in BALB/c mouse at 20 mg/kg, ip after 16 days relative to control; format: functional; conditions: route intraperitoneal
# HCT-116 [28] = test: Antitumor activity against human HCT116 cells xenografted in BALB/c mouse at 15 mg/kg, ip after 16 days relative to control; format: functional; conditions: route intraperitoneal
# Mus musculus [29] = test: Toxicity in BALB/c mouse bearing human HCT116 cells assessed as body weight at 20 mg/kg, ip relative to starting weight; format: organism-based, HCT-116; design: dose 20 mg/kg, route intraperitoneal; conditions: in vivo
# Mus musculus [30] = test: Toxicity in BALB/c mouse bearing human HCT116 cells assessed as body weight at 15 mg/kg, ip relative to starting weight; format: organism-based, HCT-116; design: dose 15 mg/kg, route intraperitoneal; conditions: in vivo
# Aurora kinase B, sequence (Q96GD4 whole entry): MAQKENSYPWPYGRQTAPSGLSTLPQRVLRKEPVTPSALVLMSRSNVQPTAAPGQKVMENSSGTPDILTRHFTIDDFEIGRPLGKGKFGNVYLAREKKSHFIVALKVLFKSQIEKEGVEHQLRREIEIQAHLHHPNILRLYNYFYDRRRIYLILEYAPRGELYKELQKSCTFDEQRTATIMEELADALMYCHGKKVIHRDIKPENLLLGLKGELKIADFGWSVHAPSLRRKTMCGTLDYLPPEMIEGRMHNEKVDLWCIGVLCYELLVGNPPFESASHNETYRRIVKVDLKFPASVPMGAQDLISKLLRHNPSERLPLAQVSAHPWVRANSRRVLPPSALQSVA
# Cyclin-dependent kinase 1/cyclin B1, sequence (P06493 whole entry): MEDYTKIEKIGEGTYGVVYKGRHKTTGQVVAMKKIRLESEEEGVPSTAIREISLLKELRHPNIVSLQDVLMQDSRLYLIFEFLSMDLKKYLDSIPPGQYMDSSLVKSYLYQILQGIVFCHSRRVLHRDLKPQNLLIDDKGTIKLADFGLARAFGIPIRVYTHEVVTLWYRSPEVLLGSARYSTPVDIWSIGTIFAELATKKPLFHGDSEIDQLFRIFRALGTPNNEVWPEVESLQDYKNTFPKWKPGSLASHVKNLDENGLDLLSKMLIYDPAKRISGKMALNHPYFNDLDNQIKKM
# Cyclin-dependent kinase 1/cyclin B1, sequence (P14635 whole entry, further chain): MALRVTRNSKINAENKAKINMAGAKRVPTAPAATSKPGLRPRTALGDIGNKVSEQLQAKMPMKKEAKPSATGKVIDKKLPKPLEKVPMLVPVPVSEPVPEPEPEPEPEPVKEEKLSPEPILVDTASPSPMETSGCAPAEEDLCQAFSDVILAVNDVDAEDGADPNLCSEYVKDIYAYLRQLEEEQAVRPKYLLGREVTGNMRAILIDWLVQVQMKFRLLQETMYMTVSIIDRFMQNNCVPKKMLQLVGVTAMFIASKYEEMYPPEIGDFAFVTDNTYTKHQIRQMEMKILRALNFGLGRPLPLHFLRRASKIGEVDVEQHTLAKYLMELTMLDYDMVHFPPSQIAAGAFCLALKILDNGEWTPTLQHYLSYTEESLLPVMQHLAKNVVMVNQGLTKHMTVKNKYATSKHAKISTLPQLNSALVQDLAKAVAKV
# Cytochrome P450 2C9, sequence (P11712 whole entry): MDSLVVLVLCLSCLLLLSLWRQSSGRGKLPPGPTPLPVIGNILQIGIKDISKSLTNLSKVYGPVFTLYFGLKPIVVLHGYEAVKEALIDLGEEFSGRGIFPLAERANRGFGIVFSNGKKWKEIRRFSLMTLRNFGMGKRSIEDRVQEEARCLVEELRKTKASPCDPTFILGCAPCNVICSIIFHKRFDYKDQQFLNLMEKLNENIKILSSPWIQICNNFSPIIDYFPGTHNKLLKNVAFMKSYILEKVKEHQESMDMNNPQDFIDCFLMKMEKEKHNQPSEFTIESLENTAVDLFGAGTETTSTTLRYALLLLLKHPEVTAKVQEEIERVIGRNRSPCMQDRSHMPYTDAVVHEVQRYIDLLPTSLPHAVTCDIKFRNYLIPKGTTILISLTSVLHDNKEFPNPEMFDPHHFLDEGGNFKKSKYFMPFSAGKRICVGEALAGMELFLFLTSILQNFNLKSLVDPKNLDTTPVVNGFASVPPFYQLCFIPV
# Glycogen synthase kinase-3 beta, sequence (P49841 whole entry): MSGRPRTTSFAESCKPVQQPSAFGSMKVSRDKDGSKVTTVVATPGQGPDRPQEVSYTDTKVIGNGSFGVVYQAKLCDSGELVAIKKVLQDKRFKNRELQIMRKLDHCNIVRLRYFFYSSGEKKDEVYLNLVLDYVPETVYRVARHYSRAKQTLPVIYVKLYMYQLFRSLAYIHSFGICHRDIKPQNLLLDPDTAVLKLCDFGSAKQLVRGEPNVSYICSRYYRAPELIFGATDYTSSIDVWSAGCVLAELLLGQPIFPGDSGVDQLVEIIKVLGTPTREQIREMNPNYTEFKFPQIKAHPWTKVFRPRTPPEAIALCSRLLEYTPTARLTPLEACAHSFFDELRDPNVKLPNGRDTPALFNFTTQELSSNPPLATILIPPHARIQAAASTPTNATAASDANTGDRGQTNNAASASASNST
# Cytochrome P450 2C19, sequence (P33261 whole entry): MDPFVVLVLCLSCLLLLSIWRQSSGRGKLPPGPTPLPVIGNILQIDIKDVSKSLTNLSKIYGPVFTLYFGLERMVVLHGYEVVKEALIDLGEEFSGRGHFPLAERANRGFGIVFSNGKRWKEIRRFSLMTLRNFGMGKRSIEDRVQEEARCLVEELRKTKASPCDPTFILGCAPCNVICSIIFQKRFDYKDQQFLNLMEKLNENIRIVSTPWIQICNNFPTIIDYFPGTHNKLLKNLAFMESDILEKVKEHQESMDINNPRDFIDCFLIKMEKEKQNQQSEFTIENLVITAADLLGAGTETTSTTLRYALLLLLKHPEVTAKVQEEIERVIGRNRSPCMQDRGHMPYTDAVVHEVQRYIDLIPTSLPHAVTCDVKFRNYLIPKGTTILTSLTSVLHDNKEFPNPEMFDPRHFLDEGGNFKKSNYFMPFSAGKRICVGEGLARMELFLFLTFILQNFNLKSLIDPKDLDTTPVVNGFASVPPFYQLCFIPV
# Cytochrome P450 2D6, sequence (P10635 whole entry): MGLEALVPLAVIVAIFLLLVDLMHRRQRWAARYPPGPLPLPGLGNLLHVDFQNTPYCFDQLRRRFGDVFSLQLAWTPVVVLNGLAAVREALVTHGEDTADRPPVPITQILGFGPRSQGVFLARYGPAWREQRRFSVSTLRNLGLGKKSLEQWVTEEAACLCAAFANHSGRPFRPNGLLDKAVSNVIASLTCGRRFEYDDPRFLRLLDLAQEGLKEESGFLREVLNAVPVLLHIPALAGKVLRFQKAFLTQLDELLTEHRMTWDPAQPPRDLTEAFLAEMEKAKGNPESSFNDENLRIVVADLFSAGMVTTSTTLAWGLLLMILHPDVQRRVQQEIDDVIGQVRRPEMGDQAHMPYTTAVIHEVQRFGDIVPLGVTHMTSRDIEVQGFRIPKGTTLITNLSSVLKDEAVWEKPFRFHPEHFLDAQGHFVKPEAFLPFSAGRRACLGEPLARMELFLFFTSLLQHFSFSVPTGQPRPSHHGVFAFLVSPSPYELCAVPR
# Vascular endothelial growth factor receptor 3, sequence (P35916 whole entry): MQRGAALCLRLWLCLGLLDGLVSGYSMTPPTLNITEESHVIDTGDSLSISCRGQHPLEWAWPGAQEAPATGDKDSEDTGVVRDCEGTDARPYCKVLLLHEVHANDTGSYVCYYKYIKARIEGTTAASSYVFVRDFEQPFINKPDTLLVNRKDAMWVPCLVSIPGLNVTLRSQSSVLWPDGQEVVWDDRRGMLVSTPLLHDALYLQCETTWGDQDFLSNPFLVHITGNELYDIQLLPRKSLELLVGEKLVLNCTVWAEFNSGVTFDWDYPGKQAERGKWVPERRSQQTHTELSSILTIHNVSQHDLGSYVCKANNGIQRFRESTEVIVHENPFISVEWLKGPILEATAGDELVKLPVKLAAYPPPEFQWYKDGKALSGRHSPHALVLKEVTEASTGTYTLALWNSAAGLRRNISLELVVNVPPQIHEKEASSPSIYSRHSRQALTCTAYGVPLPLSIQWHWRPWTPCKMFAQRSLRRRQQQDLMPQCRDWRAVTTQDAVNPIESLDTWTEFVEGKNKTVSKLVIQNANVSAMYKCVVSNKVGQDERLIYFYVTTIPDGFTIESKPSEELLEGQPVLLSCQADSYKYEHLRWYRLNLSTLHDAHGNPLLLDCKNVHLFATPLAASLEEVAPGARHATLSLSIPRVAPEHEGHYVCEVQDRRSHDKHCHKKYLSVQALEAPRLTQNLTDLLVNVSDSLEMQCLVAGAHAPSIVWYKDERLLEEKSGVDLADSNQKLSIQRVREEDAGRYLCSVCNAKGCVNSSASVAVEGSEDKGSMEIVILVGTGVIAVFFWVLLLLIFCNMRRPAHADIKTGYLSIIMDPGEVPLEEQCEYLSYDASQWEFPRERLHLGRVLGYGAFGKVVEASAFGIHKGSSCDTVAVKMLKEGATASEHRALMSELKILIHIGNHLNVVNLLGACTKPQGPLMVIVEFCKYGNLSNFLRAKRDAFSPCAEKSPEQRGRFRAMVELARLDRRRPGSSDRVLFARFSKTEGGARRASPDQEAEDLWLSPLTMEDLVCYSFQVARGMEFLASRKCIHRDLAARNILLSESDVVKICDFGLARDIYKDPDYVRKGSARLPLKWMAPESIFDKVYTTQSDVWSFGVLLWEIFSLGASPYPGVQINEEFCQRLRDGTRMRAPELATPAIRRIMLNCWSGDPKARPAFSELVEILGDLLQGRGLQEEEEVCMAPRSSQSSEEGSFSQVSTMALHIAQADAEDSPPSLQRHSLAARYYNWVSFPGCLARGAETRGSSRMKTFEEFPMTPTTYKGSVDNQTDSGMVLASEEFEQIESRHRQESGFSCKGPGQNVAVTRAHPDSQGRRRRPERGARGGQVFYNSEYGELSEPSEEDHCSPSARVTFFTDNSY
# Tyrosine-protein kinase Yes, sequence (P07947 whole entry): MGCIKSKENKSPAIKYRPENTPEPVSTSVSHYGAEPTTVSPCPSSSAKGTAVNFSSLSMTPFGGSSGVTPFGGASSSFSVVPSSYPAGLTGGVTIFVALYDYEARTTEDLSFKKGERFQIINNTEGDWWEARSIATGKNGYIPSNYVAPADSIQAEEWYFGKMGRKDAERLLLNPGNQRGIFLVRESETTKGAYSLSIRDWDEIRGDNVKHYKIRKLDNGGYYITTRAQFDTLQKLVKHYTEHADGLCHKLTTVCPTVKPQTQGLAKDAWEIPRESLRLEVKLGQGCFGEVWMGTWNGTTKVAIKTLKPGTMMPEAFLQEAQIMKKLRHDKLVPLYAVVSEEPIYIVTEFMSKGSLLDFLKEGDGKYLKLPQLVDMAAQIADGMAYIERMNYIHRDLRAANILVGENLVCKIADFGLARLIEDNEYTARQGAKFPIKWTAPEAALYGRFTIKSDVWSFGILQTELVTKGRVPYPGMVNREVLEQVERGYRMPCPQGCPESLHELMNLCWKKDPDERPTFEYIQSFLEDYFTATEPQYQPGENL
compound,measurement,setting,value
O=C(Nc1c[nH]nc1-c1nc2ccccc2[nH]1)c1ccccc1,IC50,Aurora kinase B,180 nM
same,IC50,[1],230 nM
same,Activity,HCT-116 [2],3 µM
O=C(Nc1c[nH]nc1-c1nc2cc(CN3CCOCC3)ccc2[nH]1)c1ccccc1,IC50,Aurora kinase B,15 nM
same,IC50,[3],140 nM
same,IC50,[1],340 nM
same,IC50,Aurora kinase A,3.5 nM
same,Activity,HCT-116 [2],0.1 µM
O=C(Nc1c[nH]nc1-c1nc2cc(CN3CCOCC3)ccc2[nH]1)NC1CCCCC1,IC50,Aurora kinase B,5.2 nM
same,IC50,[3],1200 nM
same,IC50,[1],2900 nM
same,IC50,Aurora kinase A,5.7 nM
same,Activity,HCT-116 [2],0.1 µM
O=C(Nc1ccccc1)Nc1c[nH]nc1-c1nc2cc(CN3CCOCC3)ccc2[nH]1,IC50,Aurora kinase B,54 nM
same,IC50,[3],1800 nM
same,fraction unbound,in vitro,0.047
same,IC50,[1],5500 nM
same,Activity,HCT-116 [2],0.3 µM
O=C(Nc1c[nH]nc1-c1nc2cc(CN3CCOCC3)ccc2[nH]1)Nc1c(F)cccc1F,IC50,Aurora kinase B,2.6 nM
same,IC50,[3],160 nM
same,IC50,HCT-116 [4],17 nM
same,fraction unbound,in vitro,0.169
same,IC50,[1],290 nM
same,IC50,Aurora kinase A,1.5 nM
same,logD,[5],3.1
same,Activity,HCT-116 [2],0.03 µM
O=C(Nc1cccnc1)Nc1c[nH]nc1-c1nc2cc(CN3CCOCC3)ccc2[nH]1,IC50,Aurora kinase B,24 nM
same,IC50,[3],160 nM
same,IC50,[1],290 nM
same,IC50,Aurora kinase A,13 nM
same,Activity,HCT-116 [2],1 µM
O=C(Nc1c[nH]nc1-c1nc2cc(CN3CCOCC3)ccc2[nH]1)NC1CCOCC1,IC50,Aurora kinase B,10 nM
same,IC50,[1],17000 nM
same,IC50,Aurora kinase A,26 nM
same,Activity,HCT-116 [2],1 µM
c1ccc2[nH]c(-c3cc[nH]n3)nc2c1,IC50,Aurora kinase B,6500 nM
same,IC50,[3],28000 nM
same,inhibition,[6],49%
Cc1cc(Nc2cc(N3CCN(C)CC3)nc(Sc3ccc(NC(=O)C4CC4)cc3)n2)n[nH]1 [TOZASERTIB],IC50,HCT-116 [4],24 nM
same,Activity,HCT-116 [2],0.03 µM
CC(=O)Nc1c[nH]nc1-c1nc2ccccc2[nH]1,IC50,Aurora kinase B,510 nM
same,IC50,[3],990 nM
same,IC50,[1],3200 nM
same,IC50,Aurora kinase A,70 nM
O=C(Nc1ccccc1F)Nc1c[nH]nc1-c1nc2cc(CN3CCOCC3)ccc2[nH]1,IC50,Aurora kinase B,10 nM
same,IC50,[3],230 nM
same,IC50,[1],1100 nM
same,IC50,Aurora kinase A,2.8 nM
same,Activity,HCT-116 [2],0.1 µM
O=C(Nc1c[nH]nc1-c1nc2ccc(CN3CCOCC3)cc2[nH]1)NC1CC1 [AT-9283],Cmax,[7],0.45 µM
same,Cmax,[8],4.9 µM
same,AUC(0-t),[9],7.7 µM·h
same,IC50,[10],1 nM
same,half-life,[11],2.5 h
same,IC50,[12],1 nM
same,solubility,[13],2000 µg/mL
same,IC50,Cytochrome P450 2C9,> 10000 nM
same,IC50,HCT-116 [4],12 nM
same,bioavailability,[14],100%
same,AUC(0-t),[15],1.9 µM·h
same,bioavailability,[16],24%
same,half-life,[17],0.5 h
same,IC50,[18],10 nM
same,IC50,Cytochrome P450 1A2,> 10000 nM
same,IC50,Cytochrome P450 2C19,> 10000 nM
same,IC50,Cytochrome P450 2D6,> 10000 nM
same,IC50,[19],1 nM
same,Vd,[20],3.9 L/kg
same,Cmax,[21],8.4 µM
same,AUC(0-t),[22],0.91 µM·h
same,solubility,[23],13000 µg/mL
same,clearance,[24],114 mL/min/kg
same,logD,[5],2.1
O=C(Nc1c[nH]nc1-c1nc2ccc(CN3CCOCC3)cc2[nH]1)c1ccc(F)cc1,clearance,[25],43 mL/min/kg
same,IC50,Aurora kinase B,75 nM
same,IC50,[3],530 nM
same,fraction unbound,in vitro,0.005
same,IC50,[1],1500 nM
same,bioavailability,[26],26%
same,Activity,HCT-116 [2],0.3 µM
Cl.O=C(Nc1c[nH]nc1-c1nc2cc(CN3CCOCC3)ccc2[nH]1)NC1CC1,T/C,HCT-116 [27],24%
same,T/C,HCT-116 [28],33%
same,Activity,Mus musculus [29],Non-toxic
same,Activity,Mus musculus [30],Non-toxic
